According to patent US20060234956A1, “Dicarboxylic acid ester derivatives of ginsenoside, pharmaceutical preparations containing the same, and preparation thereof” (Amersen Bioscience International, Inc., priority 2005, published 2006):
Like-named read-outs stand apart in the source and are kept apart here.

Legend:
Format in all cases: cell-based
[1] = tested on: OVCAR-3 (Adenocarcinoma, ovary, human); experiment: Anti-cancer activity assay, alamarBlue cell growth, OVCAR-3
Excerpt: (§1) Four human tumor cell lines, OVCAR-3 (Adenocarcinoma, ovary, human), A549 (Carcinoma, lung, human), HT-29 (Adenocarcinoma, colon, moderately well-differentiated grade II, human) and MCF-7 (Breast adenocarcinoma, pleural effusion, human) were chosen in the experiments., which were obtained from American Type Culture Collection (ATCC) under codes of ATCC HTB-161, ATCC CCL-185, ATC HTB-38 and ATCC HTB-22, respectively. The culture medium used for OVCAR-3 was RPMI 1640 medium with 20% fetal bovine serum, which was supplemented with 0.01 mg bovine insulin per ml and 1% Antibiotice-Antimycotic. The culture medium used for A549 was F-12K nutrient mixture (Kaighn's Modification), 90%; and fetal bovine serum 10%. The culture medium used for HT-29 was McCoy's 5A medium, 90%; and fetal bovine serum, 10%. The culture medium used for MCF-7 was Minimum Essential Medium, 90%; and fetal bovine serum, 10%.
CK was dissolved in a mixed solvent of ethanol and Cremophor® RH40 (ethanol:Cremophor® RH40=1:1), and then diluted with sterile distilled water to obtain test solutions having CK concentrations of 10000, 1000, 100, 10, 1 μg/ml in 5% ethanol and 5% Cremophor® RH40.
(§2) Aliquots of 100 μl of cell suspension (about 1.0˜3.0×10^3/well) were placed in 96-well microtiter plates in an atmosphere of 5% CO2 at 37° C. After 24 hours, 100 μl of growth medium and 2 μl of test solution or vehicle (5% ethanol and 5% Cremophor® RH40) were added per respectively per well in duplicate for an additional 72-hour incubation. Thus, the final concentration of vehicle was 0.05%. The test compound, CK, was evaluated at concentrations of 100, 10, 1, 0.1, 0.01 μg/ml. At the end of the incubation, 20 μl of alamarBlue 90% reagent was added to each well for another 6-hour incubation before detection of cell viability by fluorescent intensity. Fluorescent intensity was measured using a SPECTRAfluor Plus plate reader with excitation at 530 nm and emission at 590 nm.
The tumor cell lines used were the same as in Experiment 1.
CK succinate and CK glutarate derivatives were directly dissolved in the phosphate buffered saline (PBS) having a pH of 7.4, and then diluted with sterile distilled water to obtain test solutions having concentrations of the CK derivative of 2000, 200, 20, 2, 0.2 μg/ml in 40% PBS
as §2, with “(about 5.0×10^3/well)” for “(about 1.0˜3.0×10^3/well)”, “hours, 90” for “hours, 100”, “and 10” for “and 2”, “vehicle (40% PBS, pH 7.4)” for “vehicle (5% ethanol and 5% Cremophor® RH40)”, “compound, CK derivative,” for “compound, CK,”
The measured results were calculated according to the following formulas: • PG (Percent Growth): PG(%)=100%×(Mean Ftest-Mean Ftime0)/(Mean Fctrl-Mean Ftime0) • If (Mean Ftest-Mean Ftime0)<0, then PG(%)=100%×(Mean Ftest-Mean Ftime0)/(Mean Ftime0-Mean Fblank) wherein • Mean Ftime0=The average of two measured fluorescent intensities of reduced alamarBlue at the time just before exposure of cells to the test compound; • Mean Ftest=The average of two measured fluorescent intensities of alamarBlue after 72-hour exposure of cells to the test compound; • Mean Fctrl=The average of two measured fluorescent intensities of alamarBlue after 72-hour incubation without the test compound; • Mean Fblank=The average of two measured fluorescent intensities of alamarBlue in medium without cells after 72-hour incubation. […]

[2] = tested on: MCF-7 (Breast adenocarcinoma, pleural effusion, human); experiment: Anti-cancer activity assay, alamarBlue cell growth, MCF-7; conditions: 72-hour incubation, CK in 5% ethanol/5% Cremophor RH40, derivatives in PBS pH 7.4, read-out: IC50 (μM) of CK, CK succinate and CK glutarate derivatives, MCF-7
Excerpt: as §1, with “The culture medium used for A549 was F-12K nutrient mixture (Kaighn's Modification), 90%; and fetal bovine serum 10%. The culture medium used for HT-29 was McCoy's 5A medium, 90%; and fetal bovine serum, 10%. The culture medium used for MCF-7 was Minimum Essential Medium, 90%; and fetal bovine serum, 10%.” left out
(§3) Aliquots of 100 μl of cell suspension (about 1.0˜3.0×10^3/well) were placed in 96-well microtiter plates in an atmosphere of 5% CO2 at 37° C. […] The test compound, CK, was evaluated at concentrations of 100, 10, 1, 0.1, 0.01 μg/ml. […] Fluorescent intensity was measured using a SPECTRAfluor Plus plate reader with excitation at 530 nm and emission at 590 nm. […]
as §3, with “5.0×10^3/well)” for “1.0˜3.0×10^3/well)”, “CK derivative,” for “CK,”

[3] = tested on: HT-29 (Adenocarcinoma, colon, moderately well-differentiated grade II, human); experiment: Anti-cancer activity assay, alamarBlue cell growth, HT-29; conditions: 72-hour incubation, CK in 5% ethanol/5% Cremophor RH40, derivatives in PBS pH 7.4, read-out: IC50 (μM) of CK, CK succinate and CK glutarate derivatives, HT-29
Excerpt: as §1, with “The culture medium used for A549 was F-12K nutrient mixture (Kaighn's Modification), 90%; and fetal bovine serum 10%. The culture medium used for HT-29 was McCoy's 5A medium, 90%; and fetal bovine serum, 10%. The culture medium used for MCF-7 was Minimum Essential Medium, 90%; and fetal bovine serum, 10%.” left out
as §3
as §3, with “5.0×10^3/well)” for “1.0˜3.0×10^3/well)”, “CK derivative,” for “CK,”

[4] = tested on: A549 (Carcinoma, lung, human); experiment: Anti-cancer activity assay, alamarBlue cell growth, A549; conditions: 72-hour incubation, CK in 5% ethanol/5% Cremophor RH40, derivatives in PBS pH 7.4, read-out: IC50 (μM) of CK, CK succinate and CK glutarate derivatives, A549
Excerpt: as §1, with “The culture medium used for A549 was F-12K nutrient mixture (Kaighn's Modification), 90%; and fetal bovine serum 10%. The culture medium used for HT-29 was McCoy's 5A medium, 90%; and fetal bovine serum, 10%. The culture medium used for MCF-7 was Minimum Essential Medium, 90%; and fetal bovine serum, 10%.” left out
as §3
as §3, with “5.0×10^3/well)” for “1.0˜3.0×10^3/well)”, “CK derivative,” for “CK,”

[5] = OVCAR-3 tumor cell, Table 4, read-out: IC50 (μM) of ginsenosides and it's succinate derivatives on OVCAR-3 tumor cell
[6] = OVCAR-3, 72-hour incubation, alamarBlue, CK in 5% ethanol/5% Cremophor RH40, derivatives in PBS pH 7.4, read-out: IC50 (μM) of CK, CK succinate and CK glutarate derivatives, OVCAR-3

IC50 [1, 5] [µM] | IC50 [1, 6] [µM] | SMILES | further results
14.9 |  | CC(C)=CCCC(C)(OC1OC(CO)C(O)C(OC(=O)CCC(=O)O)C1O)C1CCC2(C)C1C(O)CC1C3(C)CCC(O)C(C)(C)C3C(O)CC12C (stereo not shown) [GS32, F1-3′-monosuccinate] | 
 | 69.1 | CC(C)=CCCC(C)(OC1OC(CO)C(O)C(OC(=O)CCCC(=O)O)C1O)C1CCC2(C)C1C(O)CC1C3(C)CCC(O)C(C)(C)C3CCC12C (stereo not shown) [GS-13, CK-3′-monoglutarate] | 
 | 19.3 | CC(C)=CCC[C@](C)(O[C@@H]1O[C@H](CO)[C@@H](O)[C@H](OC(=O)CCC(=O)O)[C@H]1O)[C@H]1CC[C@]2(C)[C@@H]1[C@H](O)C[C@@H]1[C@@]3(C)CC[C@H](O)C(C)(C)[C@@H]3CC[C@]12C [GS-8, CK-3′-monosuccinate] | IC50 [2]: 53.9 µM; IC50 [3]: 71.9 µM; IC50 [4]: 31.8 µM
 | 22.1 | CC(C)=CCCC(C)(OC1OC(COC(=O)CCC(=O)O)C(O)C(O)C1O)C1CCC2(C)C1C(O)CC1C3(C)CCC(O)C(C)(C)C3CCC12C (stereo not shown) [GS-6, CK-6′-monosuccinate] | 
26.6 |  | CC(C)=CCCC(C)(O)C1CCC2(C)C1C(OC(=O)CCC(=O)O)CC1C3(C)CCC(OC(=O)CCC(=O)O)C(C)(C)C3C(O)CC12C (stereo not shown) [GS52, PPT-3,12-disuccinate] | 
 | 89.9 | CC(C)=CCCC(C)(OC1OC(COC(=O)CCC(=O)O)C(O)C(OC(=O)CCC(=O)O)C1O)C1CCC2(C)C1C(O)CC1C3(C)CCC(O)C(C)(C)C3CCC12C (stereo not shown) [GS-9, CK-3′,6,-disuccinate] | 
30.3 |  | CC(C)=CCCC(C)(O)C1CCC2(C)C1C(OC(=O)CCC(=O)O)CC1C3(C)CCC(OC(=O)CCC(=O)O)C(C)(C)C3CCC12C (stereo not shown) [GS42, PPD-3,12-disuccinate] | 
50.1 |  | CC(C)=CCC[C@](C)(O[C@@H]1O[C@H](CO)[C@@H](O)[C@H](O)[C@H]1O)[C@H]1CC[C@]2(C)[C@@H]1[C@H](O)C[C@@H]1[C@@]3(C)CC[C@H](O)C(C)(C)[C@@H]3[C@@H](O)C[C@]12C [GS30, F1, reference compound] | 
 | > 100 | CC(C)=CCCC(C)(OC1OC(COC(=O)CCC(=O)O)C(OC(=O)CCC(=O)O)C(OC(=O)CCC(=O)O)C1O)C1CCC2(C)C1C(O)CC1C3(C)CCC(O)C(C)(C)C3CCC12C (stereo not shown) [GS-11, CK-3′,4′,6′-trisuccinate] | 
31.2 |  | CC(C)=CCCC(C)(O)C1CCC2(C)C1C(OC(=O)CCC(=O)O)CC1C3(C)CCC(O)C(C)(C)C3C(O)CC12C (stereo not shown) [GS51, PPT-12-monosuccinate] | 
47.6 |  | CC(C)=CCCC(C)(O)C1CCC2(C)C1C(OC(=O)CCC(=O)O)CC1C3(C)CCC(OC(=O)CCC(=O)O)C(C)(C)C3C(OC(=O)CCC(=O)O)CC12C (stereo not shown) [GS53, PPT-3,6,12-trisuccinate] | 
 | 79.8 | CC(C)=CCCC(C)(OC1OC(COC(=O)CCCC(=O)O)C(O)C(OC(=O)CCCC(=O)O)C1O)C1CCC2(C)C1C(O)CC1C3(C)CCC(O)C(C)(C)C3CCC12C (stereo not shown) [GS-14, CK-3′,6′-diglutarate] | 
42.8 |  | CC(C)=CCCC(C)(O)C1CCC2(C)C1C(OC(=O)CCC(=O)O)CC1C3(C)CCC(O)C(C)(C)C3CCC12C (stereo not shown) [GS41, PPD-12-monosuccinate] | 

SMILES | IC50 [1, 5] [µM] | IC50 [1, 6] [µM] | further results
CC(C)=CCCC(C)(O)[C@H]1CC[C@]2(C)[C@@H]1[C@H](O)C[C@@H]1[C@@]3(C)CC[C@H](O)C(C)(C)[C@@H]3CC[C@]12C (stereo in doubt) [GS40, protopanaxadiol, reference compound] | 28.2 |  | 
CC(C)=CCC[C@](C)(O[C@@H]1O[C@H](CO)[C@@H](O)[C@H](O)[C@H]1O)[C@H]1CC[C@]2(C)[C@@H]1[C@H](O)C[C@@H]1[C@@]3(C)CC[C@H](O)C(C)(C)[C@@H]3CC[C@]12C [GS-12, 20-O-β-D-glucopyranosyl-protopanaxadiol, reference compound] |  | 2.7 | IC50 [2]: 11.2 µM; IC50 [3]: 9.3 µM; IC50 [4]: 17.7 µM
CC(C)=CCC[C@](C)(O)[C@H]1CC[C@]2(C)[C@@H]1[C@H](O)C[C@@H]1[C@@]3(C)CC[C@H](O)C(C)(C)[C@@H]3[C@@H](O)C[C@]12C [GS50, protopanaxatriol, reference compound] | 31.5 |  | 
